Laboratory results published in patent US10080784B2, “Enhanced therapeutic usage of a purine nucleoside phosphorylase or nucleoside hydrolase prodrug” (SOUTHERN RESEARCH INSTITUTE, priority 2011, dated 2018).
Converted amounts (≈) assume the structure as drawn. “Also recorded” adds a separate entry of the source.

Tests used:
[1] = test system: parental D54 tumors (no E. coli PNP expression); test: Intratumoral injection into parental D54 tumors (no E. coli PNP expression)
Experimental: Parental and E. coli PNP expressing D54MG (human glioma) tumor cells (2×10^7 cells) are injected subcutaneously into the flanks of nude mice (nu/nu) purchased from Charles River Laboratories (Wilmington, Mass.). D54 tumor cells stably transduced with E. coli PNP are prepared as described previously (Parker et al. Cancer Gene Therapy 2011 June; 18(6):390-8). Tumors are measured with calipers and an estimate of the weight calculated using the equation, (length×width^2)/2=mm^3, and converted to mg assuming unit density. […] Each treatment arm of each group contained at least 6 mice. Mice are monitored daily for weight loss and twice weekly for tumor dimensions. T-C (tumor growth delay) is taken as the difference in days to 2 doublings between drug-treated and saline-treated groups. The time to the evaluation point for each animal (2 doublings) is used as the end point in a Student's t-test, the Mann-Whitney rank sum test, or a life table analysis in order to statistically compare growth data between treatment groups. All procedures are performed in accordance with a protocol approved by the IACUC of Southern Research Institute. F-araAMP is obtained from Schering A.-G. (Berlin, Germany). In this and subsequent examples, F-Ade is obtained from General Intermediates of Canada, Inc. (Edmonton, Alberta, Canada). Treatments are initiated when tumors are 250 to 300 mg (˜1-1.5% of total animal weight).
In FIG. 2A, parental D54 tumor cells are mixed with D54 tumor cells that had been transduced with E. coli PNP to a final proportion in which 10% express the transgene. This 90/10 mixture is injected sc into the flanks of nude mice. Tumors are injected once per day for 3 consecutive days starting on day 14 with 150 μl of saline, 1.5 mg of F-araAMP dissolved in saline, or 3 mg of F-araAMP is dissolved in saline. […] In FIG. 2B, parental D54 tumor cells (no E. coli PNP expression) are injected sc into the flanks of nude mice. Tumors are inoculated once per day for 3 consecutive days starting on day 14 with 150 μl of saline, 3 mg F-araAMP is dissolved in saline, 0.15 mg of F-Ade dissolved in saline, 1.26 mg of F-Ade dissolved in […] DMSO, 0.63 mg of F-Ade dissolved in DMSO, or DMSO.
As noted above, the amount of F-araAMP given intratumorally (in FIG. 2A) is less than the total intraperitoneal dose described in FIG. 1. In order to investigate the impact of higher doses of F-araAMP, the F-araAMP is dissolved in DMSO, and given at concentrations well tolerated IT, but well above the maximally-tolerated dose if administered IP (Hong et al. Cancer Res. 2004; 64: 6610-6615). Three doses of 6 or 24 mg is administered by IT injection to tumors in which 10% of cells expressed E. coli PNP (FIG. 2C). Parental D54 tumor cells or mixtures of D54 tumor cells in which 10% of the cells express E. coli PNP are injected sc into the flanks of nude mice. Tumors are injected once per day for 3 consecutive days starting on day 17 with 150 μl of DMSO, 24 mg F-araAMP in DMSO, or 6 mg F-araAMP in DMSO.

[2] = Limit of solubility of F-Ade in water; type: physicochemical; conditions: dissolved in water
[3] = test system: D54 tumors that express E. coli PNP in 5% of the cells; test: Systemic intraperitoneal F-araAMP on D54 tumors expressing E. coli PNP in 5% of cells; type: in vivo, nude mice
Experimental: Intraperitoneal treatment with F-araAMP (250 mg/kg once per day for 3 consecutive days; 167 mg/kg 3 times per day for 3 consecutive days; 100 mg/kg 5 times a day for 3 consecutive days; or vehicle control 5 times a day×3 days) began on day 17 when tumors are approximately 250 mg. […] (FIG. 1)

[4] = test system: D54 tumors in which 10% of the cells express E. coli PNP; test: Intratumoral injection into D54 tumors in which 10% of cells express E. coli PNP; type: in vivo, nude mice
Experimental: Parental and E. coli PNP expressing D54MG (human glioma) tumor cells (2×10^7 cells) are injected subcutaneously into the flanks of nude mice (nu/nu) purchased from Charles River Laboratories (Wilmington, Mass.). […] Tumors are measured with calipers and an estimate of the weight calculated using the equation, (length×width^2)/2=mm^3, and converted to mg assuming unit density. […] Each treatment arm of each group contained at least 6 mice. Mice are monitored daily for weight loss and twice weekly for tumor dimensions. T-C (tumor growth delay) is taken as the difference in days to 2 doublings between drug-treated and saline-treated groups. The time to the evaluation point for each animal (2 doublings) is used as the end point in a Student's t-test, the Mann-Whitney rank sum test, or a life table analysis in order to statistically compare growth data between treatment groups. […] Treatments are initiated when tumors are 250 to 300 mg (˜1-1.5% of total animal weight).

[5] = test system: D54 tumors in which 10% of cells express E. coli PNP; test: F-araAMP plus radiation on D54 tumors in which 10% of cells express E. coli PNP; conditions: 3 mg F-araAMP in saline x3, radiation 4 Gy x3, 3 hours after injection
Experimental: Locally advanced solid tumors often become resistant to radiation therapy. As a test of adjuvant E. coli PNP in this setting, F-araAMP injection together with external beam radiation is investigated.
D54 tumor cells in which 10% of cells expressed E. coli PNP are injected sc into the flanks of nude mice. The tumors are treated with radiation, F-araAMP, or F-araAMP plus radiation. In two treatment groups, tumors are injected once per day for 3 consecutive days with 150 μl of either saline or 3 mg F-araAMP dissolved in saline. In two other treatment groups radiation (4 Gy) is administered once per day for 3 consecutive days 3 hours after injection of 150 μl of either saline (filled squares) or 3 mg F-araAMP dissolved in saline (open squares).

D54 tumors = test: Radioactivity in tumors after intratumoral injection of [3H]F-araAMP, parental D54 tumors; type: in vivo, mice
Experimental: Total radioactivity is determined after injection of 3 mg [8-^3H]F-araAMP (10 μCi) into 300 mg D54 flank tumors. [8-^3H]F-araAMP is obtained from Moravek Biochemicals Inc. (Brea, Calif.). Tumors are removed from the mice at 10 minutes or 4 hours after injection and dissolved in 1 ml of Soluene 350 (Packard Instrument, Meriden, Conn.) by incubating at 55° C. for 4 hours. A portion of each extract is mixed with scintillation fluid and radioactivity determined.
In an effort to understand the pharmacodynamics of intratumoral (IT) F-araAMP, the levels of prodrug activation in parental (D54) tumors and tumors in which 10% of cells expressed E. coli PNP are monitored (Table 1). Tumor tissue is collected 10 minutes or 4 hours after IT injection of 3 mg [^3H]-F-araAMP and the amount of radioactivity remaining in the tumor mass determined.
Three mg (8,200 nmoles) of [^3H]F-araAMP (10 μCi/injection) are injected into D54 tumors or D54 tumors in which 10% of the cells express E. coli PNP as described in FIG. 2. Tumors (approximately 300 mg) are removed 10 minutes and 4 hours after injection with F-araAMP and the amount of radioactivity in each tumor determined. There are 4 tumors per group.

[6] = schedule q1d×3; cited from earlier work
E. coli PNP [7] = molecular target: T1, E. coli PNP (Escherichia coli, UniProt P0ABP8); conditions: cited from earlier work
T1 construct: expressed in transfected cells; host or cells: D54MG human glioma cells, either stably transduced by lentivirus or transduced in vivo with adenoviral vector Ad/PNP, grown as xenografts in nude mice; Crude tumor extracts were assayed

E. coli PNP [8] = molecular target: T1, E. coli PNP; test: Measurement of E. coli PNP activity in tumor extracts; type: biochemical; conditions: D54 tumors on day 20 after 2×10^11 VP Ad/PNP IT twice per day x3 days, FIG. 5A experiment
Experimental: The proportion of lentiviral transduced cells in a tumor mass is verified by measuring E. coli PNP activity in representative cancers removed from mice on the first day of drug treatment. Crude extracts are prepared as described previously (Parker et al. Human Gene Therapy 1997; 8: 1637-1644) after tumor excision from the flanks of mice. […] The formation of MeP is monitored using reverse phase HPLC. By convention, one unit of PNP activity is defined as the amount of extract necessary to cleave 1 nmole of MeP-dR per mg protein in a 1 hour period.

T1 sequence (P0ABP8 whole entry): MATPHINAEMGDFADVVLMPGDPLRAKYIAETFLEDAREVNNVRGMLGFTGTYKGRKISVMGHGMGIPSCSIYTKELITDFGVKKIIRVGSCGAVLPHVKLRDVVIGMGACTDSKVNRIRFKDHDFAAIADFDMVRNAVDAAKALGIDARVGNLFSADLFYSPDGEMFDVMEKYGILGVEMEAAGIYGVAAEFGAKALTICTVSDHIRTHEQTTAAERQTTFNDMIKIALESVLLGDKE

Nc1nc(F)nc2nc[nH]c12 [F-Ade, 2-fluoroadenine]
Tumor growth, P versus DMSO vehicle group ([1]; 0.63 mg F-Ade in DMSO IT once per day x3, FIG. 2B): 0.011 | Antitumor effect ([1]; F-Ade 0.15 ml of 1 mg/ml in water/saline (highest possible solubility) IT): no antitumor effect; also recorded: fails to elicit antitumor activity | Antitumor effect ([1]; F-Ade in DMSO IT (0.15 ml of 8.6 mg/ml; 1.26 mg x3)): modest antitumor effect; also recorded: minimal antitumor activity | Maximally tolerated dose (MTD) ([1]; F-Ade in DMSO, three IT injections): ~1.26 mg | Decrease in body weight ([1]; three IT injections of 1.26 mg F-Ade in DMSO): 10% | Death of mice ([1]; three IT injections of 2.5 mg F-Ade in DMSO): 3 of 6 | Death of mice ([1]; three IT injections of 5 mg F-Ade in DMSO): 4 of 6 | solubility [2]: 1000 µg/mL (≈ 6.53 mM)

Nc1nc(F)nc2c1ncn2[C@@H]1O[C@H](COP(=O)(O)O)[C@@H](O)[C@@H]1O [F-araAMP, fludarabine phosphate]
Gross tissue damage in region surrounding the tumor ([3]; IP F-araAMP): no gross tissue damage | Decrease in body weight ([3]; IP F-araAMP, quickly regained after schedule completed): 10 to 20% | Tumor growth, P versus vehicle treated group ([3]; all IP F-araAMP groups (250 mg/kg x3, 167 mg/kg x9, 100 mg/kg x15 over 3 days), from day 17, FIG. 1): < 0.001 | Weight loss ([4]; 3 mg F-araAMP IT per injection, 3 total injections): less than 4% | Tumor growth, P versus vehicle treated group ([4]; 3 mg F-araAMP in saline IT once per day x3 from day 14, FIG. 2A): < 0.001 | Tumor growth, P versus vehicle treated group ([4]; 6 mg F-araAMP in DMSO IT once per day x3 from day 17, FIG. 2C): 0.014 | Tumor ulcerations ([4]; 6 mg F-araAMP in DMSO IT x3): no ulcerations | Tumor growth, P versus vehicle treated group ([4]; 24 mg F-araAMP in DMSO IT once per day x3 from day 17, FIG. 2C): < 0.001 | Tumors that became ulcerated ([4]; 24 mg F-araAMP in DMSO IT x3): Three of the 6 | Tumors completely regressed, mice tumor-free until day 70 ([4]; 24 mg F-araAMP in DMSO IT x3, of 6 tumors, 3 sacrificed for ulceration): 3 tumors | Decrease in body weight ([4]; F-araAMP IT at the highest dose (24 mg), recovered rapidly): 7% | Tumor growth, P of 3 mg group versus 1.5 mg group ([4]; F-araAMP in saline IT once per day x3 from day 14, FIG. 2A): 0.458 | Effect on tumor growth ([1]; IT F-araAMP, FIGS. 2B, 2D and 3): no effect | Tumor growth, P of radiation plus F-araAMP versus F-araAMP only [5]: 0.004 | Tumor growth, P of radiation plus F-araAMP versus radiation only [5]: < 0.001 | Radioactivity in tumor, nmoles F-araAMP/gram of tissue (D54 tumors; 10 min after IT injection of 3 mg [3H]F-araAMP): 980 ± 730 nmoles F-araAMP/gram of tissue | Radioactivity in tumor, nmoles F-araAMP/gram of tissue (D54 tumors; 4 hours after IT injection of 3 mg [3H]F-araAMP): 31 ± 6 nmoles F-araAMP/gram of tissue | Maximally tolerated dose [6]: 750 mg/kg

Nc1nc(F)nc2c1ncn2[C@H]1C[C@H](O)[C@@H](CO)O1 [F-dAdo, 2-F-2′-deoxyadenosine]
Substrate for E. coli PNP compared with F-araA (E. coli PNP [7]): much better substrate

Ad/PNP
E. coli PNP activity in the tumors (E. coli PNP [8]): 7,500±2,000 units
